The test deals with SIRT2 (sirtuin-2) (Homo sapiens, UniProt Q8IXJ6). The test is described as follows: in vitro enzymatic assay. Type of test: biochemical.

Data on one molecule can be found in article PMC5417072 (Anticancer research, 2016).

Sequence of SIRT2 (sirtuin-2) (Q8IXJ6 2-389): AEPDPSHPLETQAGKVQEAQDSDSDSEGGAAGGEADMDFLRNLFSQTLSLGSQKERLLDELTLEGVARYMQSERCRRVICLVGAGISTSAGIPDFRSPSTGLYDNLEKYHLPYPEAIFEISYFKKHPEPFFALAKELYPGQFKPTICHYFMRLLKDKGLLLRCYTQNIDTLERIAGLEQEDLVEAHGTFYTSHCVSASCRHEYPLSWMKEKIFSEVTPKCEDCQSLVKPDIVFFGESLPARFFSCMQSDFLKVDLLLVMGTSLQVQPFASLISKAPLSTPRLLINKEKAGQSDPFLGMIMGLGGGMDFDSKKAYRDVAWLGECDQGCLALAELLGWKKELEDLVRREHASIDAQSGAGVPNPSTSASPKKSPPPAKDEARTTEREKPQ

`COC(=O)[C@H](CCC(=O)Nc1cccc2c1ccn2Cc1cccc(C(N)=O)c1)NC(=O)OCc1ccccc1` [compound 6, (S)-Methyl 2-(((benzyloxy)carbonyl)amino)-5-((1-(3-carbamo-ylbenzyl)-1H-indol-4-yl)amino)-5-oxopentanoate] displayed an IC50 of 33 µM.

As a reminder, the IC50 is the concentration that inhibits the measured activity by half.
